According to US11208400B2, “Substituted 6-(1H-pyrazol-1-yl)pyrimidin-4-amine derivatives and uses thereof” (Bayer Aktiengesellschaft, priority 2016, dated 2021):
pIC50: −log10 of the molar value.

biological target: T1, human Npt2a (Homo sapiens, UniProt Q06495); assay: Npt2a activity cell based assay, membrane potential dye, CHO T-REx hNpt2a cells; conditions: doxycycline-induced, depolarization by sodium phosphate influx, average or median values if tested more than once
T1 construct: expressed in transfected cells
T1 sequence (Q06495 1-639): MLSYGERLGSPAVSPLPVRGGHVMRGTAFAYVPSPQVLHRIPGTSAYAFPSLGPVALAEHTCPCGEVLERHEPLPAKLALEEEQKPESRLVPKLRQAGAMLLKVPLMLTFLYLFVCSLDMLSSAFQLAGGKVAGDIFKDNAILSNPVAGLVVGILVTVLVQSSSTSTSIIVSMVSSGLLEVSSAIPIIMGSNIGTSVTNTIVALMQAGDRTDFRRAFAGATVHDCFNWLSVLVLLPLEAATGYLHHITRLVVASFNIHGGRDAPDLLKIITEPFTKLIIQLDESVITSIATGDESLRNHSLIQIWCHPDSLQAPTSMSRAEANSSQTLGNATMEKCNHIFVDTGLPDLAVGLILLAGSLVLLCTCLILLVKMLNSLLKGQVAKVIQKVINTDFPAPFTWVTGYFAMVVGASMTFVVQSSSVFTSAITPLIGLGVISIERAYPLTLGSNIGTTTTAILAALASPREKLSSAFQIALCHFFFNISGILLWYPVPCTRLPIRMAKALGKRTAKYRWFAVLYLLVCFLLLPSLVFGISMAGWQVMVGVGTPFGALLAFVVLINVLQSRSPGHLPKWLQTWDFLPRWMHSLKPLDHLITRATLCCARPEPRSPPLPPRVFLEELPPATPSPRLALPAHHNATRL
Procedure, shortened: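 Cells were doxycycline-induced CHO T-REx hNpt2a, dye-loaded and pretreated 5 min at RT with 1 nM–50 μM compound in Na-free pH 7.4 buffer. IC50 was fit to the post/pre-trigger fluorescence ratio.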

Structure (SMILES)	pIC50
COC(=O)c1ccc(-c2c(C)c(Nc3cc(-n4nc(C)cc4C)ncn3)nn2C)cc1 [Example 122, methyl 4-(3-{[6-(3,5-dimethyl-1H-pyrazol-1-yl)pyrimidin-4-yl]amino}-1,4-dimethyl-1H-pyrazol-5-yl)benzoate]	7.60
Cc1nn(-c2cc(Nc3nn(C)c(-c4ccc(F)cc4F)c3Cl)ncn2)c2ccccc12 [Example 57, N-[4-chloro-5-(2,4-difluorophenyl)-1-methyl-1H-pyrazol-3-yl]-6-(3-methyl-1H-indazol-1-yl)pyrimidin-4-amine]	6.93
COCCn1nc(-c2ccc(F)cn2)c(C)c1Nc1cc(-n2nc(C)c(OC)c2C)ncn1 [Example 544, N-[3-(5-fluoropyridin-2-yl)-1-(2-methoxyethyl)-4-methyl-1H-pyrazol-5-yl]-6-(4-methoxy-3,5-dimethyl-1H-pyrazol-1-yl)pyrimidin-4-amine]	7.96
Cc1nn(-c2cc(Nc3c(C)c(-c4ccc(OC(F)F)cc4)nn3CC3CC3)ncn2)c(C)c1Cl [Example 398, 6-(4-chloro-3,5-dimethyl-1H-pyrazol-1-yl)-N-{1-(cyclopropylmethyl)-3-[4-(difluoromethoxy)phenyl]-4-methyl-1H-pyrazol-5-yl}pyrimidin-4-amine]	7.60
CC(=O)c1c(C)nn(-c2cc(Nc3c(C)nn(-c4ccc(C#N)cc4)c3C)ncn2)c1C [Example 451, 4-(4-{[6-(4-acetyl-3,5-dimethyl-1H-pyrazol-1-yl)pyrimidin-4-yl]amino}-3,5-dimethyl-1H-pyrazol-1-yl)benzonitrile]	7.11
Cc1nn(-c2cc(Nc3c(C)c(C45C6C7C4C4C5C6C74C#N)nn3CC3CC3)ncn2)c(C)c1Cl (stereo not drawn) [Example 513, 4-[5-{[6-(4-chloro-3,5-dimethyl-1H-pyrazol-1-yl)pyrimidin-4-yl]amino}-1-(cyclopropylmethyl)-4-methyl-1H-pyrazol-3-yl]cubane-1-carbonitrile]	8.15
CCc1c(Nc2cc(-n3nc(C)c(C(=O)N4CC(F)C4)c3C)ncn2)nn(C)c1-c1ccc(F)cc1 [Example 126, [1-(6-{[4-ethyl-5-(4-fluorophenyl)-1-methyl-1H-pyrazol-3-yl]amino}pyrimidin-4-yl)-3,5-dimethyl-1H-pyrazol-4-yl](3-fluoroazetidin-1-yl)methanone]	6.01
CCc1c(Nc2cc(-n3nc(C)c(Cl)c3C)ncn2)nn(C)c1-c1ccc(F)cc1 [Example 99, 6-(4-chloro-3,5-dimethyl-1H-pyrazol-1-yl)-N-[4-ethyl-5-(4-fluorophenyl)-1-methyl-1H-pyrazol-3-yl]pyrimidin-4-amine]	7.30
CCc1c(Nc2cc(-n3nc4c(c3C)C(=O)CC4)ncn2)nn(C)c1-c1ccc(F)cc1 [Example 274, 2-(6-{[4-ethyl-5-(4-fluorophenyl)-1-methyl-1H-pyrazol-3-yl]amino}pyrimidin-4-yl)-3-methyl-5,6-dihydrocyclopenta[c]pyrazol-4(2H)-one]	7.36
COC(C)c1c(C)nn(-c2cc(Nc3c(C)c(-c4ccc(F)cc4)nn3CC3CC3)ncn2)c1C (racemic) [Example 326, (±)-N-[1-(cyclopropylmethyl)-3-(4-fluorophenyl)-4-methyl-1H-pyrazol-5-yl]-6-{4-[1-methoxyethyl]-3,5-dimethyl-1H-pyrazol-1-yl}pyrimidin-4-amine (Racemic)]	8.40
Cc1nn(-c2cc(Nc3c(Cl)c(-c4ccc(F)cc4)nn3C)ncn2)c2ccccc12 [Example 100, N-[4-chloro-3-(4-fluorophenyl)-1-methyl-1H-pyrazol-5-yl]-6-(3-methyl-1H-indazol-1-yl)pyrimidin-4-amine]	6.44
CCOC(=O)Cc1c(C)nn(-c2cc(Nc3nn(C)c(-c4ccc(F)cc4)c3CC)ncn2)c1C [Example 87, ethyl [1-(6-{[4-ethyl-5-(4-fluorophenyl)-1-methyl-1H-pyrazol-3-yl]amino}pyrimidin-4-yl)-3,5-dimethyl-1H-pyrazol-4-yl]acetate]	7.49
Cc1cc(C)n(-c2cc(Nc3c(C)c(-c4ccc(F)cc4)nn3CC3CC3)ncn2)n1 [Example 171, N-[1-(cyclopropylmethyl)-3-(4-fluorophenyl)-4-methyl-1H-pyrazol-5-yl]-6-(3,5-dimethyl-1H-pyrazol-1-yl)pyrimidin-4-amine]	7.92
CCc1c(Nc2cc(-n3nc(C)c(C(=O)N4CC(F)(F)C4)c3C)ncn2)nn(C)c1-c1ccc(F)cc1 [Example 124, (3,3-difluoroazetidin-1-yl) [1-(6-{[4-ethyl-5-(4-fluorophenyl)-1-methyl-1H-pyrazol-3-yl]amino}pyrimidin-4-yl)-3,5-dimethyl-1H-pyrazol-4-yl]methanone]	6.81
CCc1c(Nc2cc(-n3cccn3)ncn2)nn(C)c1-c1ccc(F)cc1 [Example 245, N-[4-ethyl-5-(4-fluorophenyl)-1-methyl-1H-pyrazol-3-yl]-6-(1H-pyrazol-1-yl)pyrimidin-4-amine]	6.18
COC(C)c1c(C)nn(-c2cc(Nc3nn(C)c(-c4ccc(F)cc4)c3C)ncn2)c1C (single isomer, unassigned) [Example 345, N-[5-(4-fluorophenyl)-1,4-dimethyl-1H-pyrazol-3-yl]-6-{4-[1-methoxyethyl]-3,5-dimethyl-1H-pyrazol-1-yl}pyrimidin-4-amine]	8.15
Cc1cc(C)n(-c2cc(Nc3nn(C)c(-c4ccc(F)cc4)c3Cl)ncn2)n1 [Example 91, N-[4-chloro-5-(4-fluorophenyl)-1-methyl-1H-pyrazol-3-yl]-6-(3,5-dimethyl-1H-pyrazol-1-yl)pyrimidin-4-amine]	8.24
Cc1cc(C)n(-c2cc(Nc3nn(C)c(-c4cccc(C#N)c4)c3C)ncn2)n1 [Example 189, 3-(3-{[6-(3,5-dimethyl-1H-pyrazol-1-yl)pyrimidin-4-yl]amino}-1,4-dimethyl-1H-pyrazol-5-yl)benzonitrile]	7.13
Cc1nn(-c2cc(Nc3c(C)c(-c4ccc(C#N)cc4)nn3CC3CC3)ncn2)c(C)c1F [Example 268, 4-[1-(cyclopropylmethyl)-5-{[6-(4-fluoro-3,5-dimethyl-1H-pyrazol-1-yl)pyrimidin-4-yl]amino}-4-methyl-1H-pyrazol-3-yl]benzonitrile]	8.10
Cc1nn(-c2ccc(C#N)cc2)c(C)c1Nc1cc(-n2nc(C)c(C(C)(C)O)c2C)ncn1 [Example 366, 4-[4-({6-[4-(2-hydroxypropan-2-yl)-3,5-dimethyl-1H-pyrazol-1-yl]pyrimidin-4-yl}amino)-3,5-dimethyl-1H-pyrazol-1-yl]benzonitrile]	6.82
Cc1nn(-c2cc(Nc3c(C)c(-c4ccc(F)cc4)nn3CC3CC3)ncn2)c(C)c1C(O)C1CC1 (single isomer, unassigned) [Example 420, cyclopropyl[1-(6-{[1-(cyclopropylmethyl)-3-(4-fluorophenyl)-4-methyl-1H-pyrazol-5-yl]amino}pyrimidin-4-yl)-3,5-dimethyl-1H-pyrazol-4-yl]methanol]	7.62
COc1c(-c2ccc(C#N)cc2)nn(CC2CC2)c1Nc1cc(-n2nc(C)c(C(C)O)c2C)ncn1 (single isomer, unassigned) [Example 332, 4-{1-(cyclopropylmethyl)-5-[(6-{4-[1-hydroxyethyl]-3,5-dimethyl-1H-pyrazol-1-yl}pyrimidin-4-yl)amino]-4-methoxy-1H-pyrazol-3-yl}benzonitrile]	5.72
COC(C)c1c(C)nn(-c2cc(Nc3c(C)c(-c4ccc(F)cc4)nn3CC3CC3)ncn2)c1C (single isomer, unassigned) [Example 328, N-[1-(cyclopropylmethyl)-3-(4-fluorophenyl)-4-methyl-1H-pyrazol-5-yl]-6-{4-[1-methoxyethyl]-3,5-dimethyl-1H-pyrazol-1-yl}pyrimidin-4-amine]	8.40
COCCn1nc(-c2ccc(F)cc2)c(C)c1Nc1cc(-n2nc(C)c(Cl)c2C)ncn1 [Example 414, 6-(4-chloro-3,5-dimethyl-1H-pyrazol-1-yl)-N-[3-(4-fluorophenyl)-1-(2-methoxyethyl)-4-methyl-1H-pyrazol-5-yl]pyrimidin-4-amine]	8.52
Cc1nn(-c2cc(Nc3c(C)c(-c4ccc(F)cc4)nn3CC3CC3)ncn2)c(C)c1C(C)O (single isomer, unassigned) [Example 329, 1-[1-(6-{[1-(cyclopropylmethyl)-3-(4-fluorophenyl)-4-methyl-1H-pyrazol-5-yl]amino}pyrimidin-4-yl)-3,5-dimethyl-1H-pyrazol-4-yl]ethanol]	7.17
Cc1cc(C(F)F)n(-c2cc(Nc3nn(C)c(-c4ccc(C(F)F)cc4)c3C)ncn2)n1 [Example 432, 6-[5-(difluoromethyl)-3-methyl-1H-pyrazol-1-yl]-N-{5-[4-(difluoromethyl)phenyl]-1,4-dimethyl-1H-pyrazol-3-yl}pyrimidin-4-amine]	6.49
CCc1c(Nc2cc(-n3nc(C)c4c3CCC4=O)ncn2)nn(C)c1-c1ccc(F)cc1 [Example 273, 1-(6-{[4-ethyl-5-(4-fluorophenyl)-1-methyl-1H-pyrazol-3-yl]amino}pyrimidin-4-yl)-3-methyl-5,6-dihydrocyclopenta[c]pyrazol-4(1H)-one]	6.92
